According to US7563910B2, “Heterocyclic cannabinoid receptor antagonists” (Hoffmann-La Roche Inc., priority 2004, dated 2009):

Key:
[1] = 10 and 20 mg daily, compared to placebo; cited from earlier work
[2] = wild-type versus CB1 receptor knockout mice; cited from earlier work
[3] = molecular target: T1, human cannabis CB1 receptor (Homo sapiens, UniProt P21554); assay: Affinity for cannabinoid CB1 receptors, [3H]-CP-55,940 radioligand binding on HEK cell membranes; conditions: affinity for the CB1 receptor
T1 construct: expressed in transfected cells; host or cells: human embryonic kidney (HEK) cells, transient, Semliki Forest Virus system; membrane preparation
Experimental: The affinity of the compounds of the invention for cannabinoid CB1 receptors was determined using membrane preparations of human embryonic kidney (HEK) cells in which the human cannabis CB1 receptor is transiently transfected using the Semliki Forest Virus system in conjunction with [3H]-CP-55,940 as radioligand. After incubation of a freshly prepared cell membrane preparation with the [3H]-ligand, with or without addition of compounds of the invention, separation of bound and free ligand was performed by filtration over glassfiber filters. Radioactivity on the filter was measured by liquid scintillation counting. The affinity of the compounds of the invention for cannabinoid CB2 receptors was determined using membrane preparations of human embryonic kidney (HEK) cells in which the human cannabis CB2 receptor is transiently transfected using the Semliki Forest virus system in conjunction with [3H]-CP-55,940 as radioligand. After incubation of a freshly prepared cell membrane preparation with the [3H]-ligand, with or without addition of compounds of the invention, separation of bound of bound and free ligand was performed by filtration over glassfiber filters. Radioactivity on the filter was measured by liquid scintillation counting. The cannabinoid CB1 antagonistic activity of compounds of the invention was determined by functional studies using CHO cells in which human cannabinoid CB1 receptors are stably expressed (see M. Rinaldi-Carmona et. al., J. Pharmacol. Exp. Ther. 278 (1996) 871). The stable expression of the human cannabinoid receptor in cell systems was first described in Nature 1990, 346, 561-564 (CB1) and Nature 1993, 365, 61-65 (CB2) respectively. Adenylyl cyclase was stimulated using forskolin and measured by quantifying the amount of accumulated cyclic AMP. […]
The compounds of formula (I) show an excellent affinity for the CB1 receptor, determined with the experimental conditions described in Devane et. al. Mol. Pharmacol. 34 (1988) 605-613. […]

T1 sequence (P21554 whole entry): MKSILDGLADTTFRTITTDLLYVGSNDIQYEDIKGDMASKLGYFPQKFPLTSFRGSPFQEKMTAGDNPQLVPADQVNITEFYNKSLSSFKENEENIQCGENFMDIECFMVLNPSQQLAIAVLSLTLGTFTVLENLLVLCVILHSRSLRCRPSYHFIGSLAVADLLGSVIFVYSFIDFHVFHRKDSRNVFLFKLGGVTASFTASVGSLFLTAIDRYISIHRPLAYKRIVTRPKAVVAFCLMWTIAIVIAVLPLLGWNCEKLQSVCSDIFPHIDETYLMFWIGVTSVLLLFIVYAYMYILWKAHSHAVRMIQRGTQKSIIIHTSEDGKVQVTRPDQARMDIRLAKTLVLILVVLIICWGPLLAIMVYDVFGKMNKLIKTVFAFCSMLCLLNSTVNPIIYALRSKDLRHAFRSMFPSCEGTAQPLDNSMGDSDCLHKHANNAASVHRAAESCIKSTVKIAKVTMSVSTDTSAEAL

Question: For `Cc1c(C(=O)NN2CCCCC2)nn(-c2ccc(Cl)cc2Cl)c1-c1ccc(Cl)cc1` [SR 141716], which body weight [1] is on record?
Answer: significantly reduced body weight

Question: What about the food intake [2] of the same molecule?
Answer: reduces food intake in wild-type but not knockout mice

Question: Which IC50 [3] does the source give for `Cc1c(C(=O)NC2CCCCC2)cc(-c2cc(C(F)(F)F)ccc2C(F)(F)F)n1C[C@H]1CCCO1` [Example 23, 5-(2,5-Bis-trifluoromethyl-phenyl)-2-methyl-1-[(R)-1-(tetrahydro-furan-2-yl)methyl]-1H-pyrrole-3-carboxylic acid cyclohexylamide] here?
Answer: 8 nM

Question: Which IC50 [3] does the source give for `Cc1c(C(=O)NC2CCCCC2)cc(-c2ccccc2OC(F)(F)F)n1CC1COCCO1` (racemic) [Example 10, (rac) 1-[1,4]Dioxan-2-ylmethyl-2-methyl-5-(2-trifluoromethoxy-phenyl)-1H-pyrrole-3-carboxylic acid cyclohexylamide] here?
Answer: 76 nM

Question: Which IC50 [3] does the source give for `Cc1c(C(=O)NN2CCCCC2)nc(-c2ccc(OC(F)(F)F)cc2)n1CC1CCCCO1` (centres unmarked) [Example 1, 5-Methyl-1-(tetrahydro-pyran-2-ylmethyl)-2-(4-trifluoromethoxy-phenyl)-1H-imidazole-4-carboxylic acid piperidin-1-ylamide] here?
Answer: 120 nM
